Data from US9175013B2, “Fused aminodihydrothiazine derivatives” (Eisai R&D Management Co., Ltd., priority 2011, dated 2015).

Test: Brain tissue binding (BTB), rapid equilibrium dialysis
Assay type: in vitro ADME, Sprague Dawley rat
Conditions: 1 μg/mL in rat brain homogenate, 37° C., 6 h dialysis, mean of n = 3; for fraction unbound at 6 h, 1 μg/mL: male, Sprague Dawley, pH 7.4, read-out: Rat Brain fu
Experimental: Method for Determination of Plasma Protein Binding (PPB) and Brain Tissue Binding (BTB) Compound Preparation • Compounds were dissolved in DMSO to give a 1 mg free base/mL solution, before further dilution to 100 μg/mL in acetonitrile (100 μL of 1 mg/mL into 900 μL acetonitrile). Matrix Preparation • On the morning of dialysis, control male Sprague Dawley rat plasma and brain, previously stored at −80° C. were thawed at room temperature. Plasma was checked for pH and if necessary adjusted to 7.4 with 1M HCl. Plasma was then centrifuged (2000 g for 10 min) and the brains diluted with 2 mL of Phosphate Buffered Saline (pH 7.4) per gram of tissue and homogenised using a mechanical homogeniser. An aliquot (10 μL) of the 100 μg/mL acetonitrile compound solution was then added to 1 mL of plasma and brain homogenate and vortex mixed to give a final compound concentration of 1 μg/mL in matrix. RED Plate Preparation • The Rapid Equilibrium Dialysis (RED) plate (Thermo Scientific) was prepared in accordance with the manufacturers guidelines i.e. the base plate was soaked in 20% (v/v) ethanol for 10 min and then rinsed twice with deionised water before being allowed to dry. The base plate was then filled with the appropriate number of disposable inserts (n=3 per compound) (Thermo Scientific) and matrix containing 1 μg/mL compound added into the matrix chamber of the inserts (200 μL) and an aliquot (350 μL) of PBS added to the buffer chamber. The plate was then covered with an adhesive and incubated in air at 37° C. for 6 h with 130 rpm agitation. Sampling • Following the 6 h incubation, the seal was removed and an aliquot (50 μL) taken from the PBS chambers and dispensed into Micronics tubes. Also, an aliquot (50 μL) was removed from the matrix chambers and placed into separate Micronics tubes. Plasma and brain was then matrix matched with 50 μL of drug-free PBS and the PBS samples with 50 μL of the corresponding drug-free matrix, to give equal final compositions and volumes […]. Sample Analysis • Samples were vortex mixed and an aliquot (300 μL) of acetonitrile containing 0.1% formic acid and 100 ng/mL of an appropriate internal standard added. Samples were then mixed and centrifuged (2000 g for 15 min) and an aliquot of the supernatant (100 μL) removed into a 96-deep well plate and diluted with an equal volume of water ready for analysis by LC-MS/MS. • The following data was obtained for the following compounds in the above assay (Table 5).

| SMILES | Rat BTB (%) | fraction unbound at 6 h, 1 μg/mL |
| --- | --- | --- |
| COc1cnc(C(=O)Nc2ccc(F)c([C@]34CO[C@H](CF)[C@H]3CSC(N)=N4)c2)cn1 [Example 2, N-(3-((4aS,5S,7aS)-2-amino-5-(fluoromethyl)-4a,5,7,7a-tetrahydro-4H-furo[3,4-d][1,3]thiazin-7a-yl)-4-fluorophenyl)-5-methoxypyrazine-2-carboxamide] | 93.4 | 0.066 |
| COc1cnc(C(=O)Nc2ccc(F)c([C@]34CO[C@H](C(F)F)[C@H]3CSC(N)=N4)c2)cn1 [Example 3, N-(3-((4aS,5S,7aS)-2-amino-5-(difluoromethyl)-4a,5,7,7a-tetrahydro-4H-furo[3,4-d][1,3]thiazin-7a-yl)-4-fluorophenyl)-5-methoxypyrazine-2-carboxamide] | 96.5 | 0.035 |
| COc1cnc(C(=O)Nc2cc(F)c(F)c([C@]34CO[C@H](CF)[C@H]3CSC(N)=N4)c2)cn1 [Example 4, N-(3-((4aS,5S,7aS)-2-amino-5-(fluoromethyl)-4a,5,7,7a-tetrahydro-4H-furo[3,4-d][1,3]thiazin-7a-yl)-4,5-difluorophenyl)-5-methoxypyrazine-2-carboxamide] | 97.9 | 0.021 |
